Data from patent US20240336608A1, “IL4I1 INHIBITORS AND METHODS OF USE” (Merck Sharp & Dohme LLC, priority 2023, published 2024).

Biological target: T1, recombinant IL4I1 (Homo sapiens, UniProt Q96RQ9)
T1 construct: purchased R&D Systems 5684-AO-020
T1 sequence (Q96RQ9 22-567): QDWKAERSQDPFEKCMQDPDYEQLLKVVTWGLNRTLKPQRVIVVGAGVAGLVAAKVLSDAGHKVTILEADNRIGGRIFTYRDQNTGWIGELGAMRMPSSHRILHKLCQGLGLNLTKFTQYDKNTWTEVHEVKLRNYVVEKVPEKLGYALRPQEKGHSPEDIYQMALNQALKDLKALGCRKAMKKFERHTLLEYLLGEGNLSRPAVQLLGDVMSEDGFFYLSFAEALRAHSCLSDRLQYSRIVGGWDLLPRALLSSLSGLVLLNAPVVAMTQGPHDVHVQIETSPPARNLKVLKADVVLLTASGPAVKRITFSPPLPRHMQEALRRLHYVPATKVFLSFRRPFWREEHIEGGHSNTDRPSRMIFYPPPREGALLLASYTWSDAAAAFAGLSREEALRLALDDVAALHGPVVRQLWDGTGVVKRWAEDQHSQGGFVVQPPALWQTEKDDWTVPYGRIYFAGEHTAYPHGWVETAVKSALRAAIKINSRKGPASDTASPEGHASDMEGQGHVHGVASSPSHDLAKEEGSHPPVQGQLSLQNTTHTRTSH
Assay: IL4I1 Enzymatic Assay (Amplex Red/HRP coupled detection of H2O2, fluorescence)
Format: biochemical
Conditions: 1 nM recombinant IL4I1; four-hour pre-incubation with compound; 1 mM each Phe, Tyr, Trp; ten-point titration
In short: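 H2O2 output was coupled to resorufin fluorescence (ex 544/em 590) via 0.05 mM Amplex Red and 1 U/mL HRP. Substrate: Phe, Tyr, Trp at 1 mM each; enzyme 1 nM, 4 h compound pre-incubation, 120 min reaction, pH 7.0 Hepes. EC50 by nonlinear four-parameter regression, 1:3 ten-point titration.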

Row | EC50 [nM] | SMILES
1 | 17 | O=C(NCc1nnc(-c2ccccc2)s1)c1cn([C@@H]2COC[C@@H]2F)nn1 [Example 198, 1-((3R,4R)-4-fluorotetrahydrofuran-3-yl)-N-((5-phenyl-1,3,4-thiadiazol-2-yl)methyl)-1H-1,2,3-triazole-4-carboxamide]
2 | 140 | O=C(NCc1nnc(-c2ccccc2)s1)c1cn([C@H]2COC[C@@H]2F)nn1 [Example 199, 1-((3S,4R)-4-fluorotetrahydrofuran-3-yl)-N-((5-phenyl-1,3,4-thiadiazol-2-yl)methyl)-1H-1,2,3-triazole-4-carboxamide]
3 | 537 | O=C(NCc1nnc(-c2ccccc2)s1)c1cn(C2C3COCC32)nn1 (stereo not shown) [Example 200, 1-(3-oxabicyclo[3.1.0]hexan-6-yl)-N-((5-phenyl-1,3,4-thiadiazol-2-yl)methyl)-1H-1,2,3-triazole-4-carboxamide]
4 | 226 | CC(C)(O)Cn1cc(C(=O)NCc2nnc(-c3ccccc3)s2)nn1 [Example 201, 1-(2-hydroxy-2-methylpropyl)-N-((5-phenyl-1,3,4-thiadiazol-2-yl)methyl)-1H-1,2,3-triazole-4-carboxamide]
5 | 31 | CC(n1cc(C(=O)NCc2nnc(-c3ccccc3)s2)nn1)C(F)(F)F (stereo not shown) [Example 203, N-((5-phenyl-1,3,4-thiadiazol-2-yl)methyl)-1-(1,1,1-trifluoropropan-2-yl)-1H-1,2,3-triazole-4-carboxamide]
6 | 74 | CC([C@H]1CCCO1)n1cc(C(=O)NCc2nnc(-c3ccccc3)s2)nn1 (stereo partly drawn) [Example 204, N-((5-phenyl-1,3,4-thiadiazol-2-yl)methyl)-1-(1-((R)-tetrahydrofuran-2-yl)ethyl)-1H-1,2,3-triazole-4-carboxamide]
7 | 33 | C[C@H]1OCC[C@H]1Cn1cc(C(=O)NCc2nnc(-c3ccccc3)s2)nn1 [Example 205, 1-(((2R,3S)-2-methyltetrahydrofuran-3-yl)methyl)-N-((5-phenyl-1,3,4-thiadiazol-2-yl)methyl)-1H-1,2,3-triazole-4-carboxamide]
8 | 226 | O=C(NCc1nnc(-c2ccccc2)s1)c1cn(C2CCCC(O)C2)nn1 (stereo not shown) [Example 206, 1-(3-hydroxycyclohexyl)-N-((5-phenyl-1,3,4-thiadiazol-2-yl)methyl)-1H-1,2,3-triazole-4-carboxamide]
9 | 327 | O=C(NCc1nnc(-c2ccccc2)s1)c1cn(CCC2CCCO2)nn1 (stereo not shown) [Example 207, N-((5-phenyl-1,3,4-thiadiazol-2-yl)methyl)-1-(2-(tetrahydrofuran-2-yl)ethyl)-1H-1,2,3-triazole-4-carboxamide]
10 | 711 | CC1(n2cc(C(=O)NCc3nnc(-c4ccccc4)s3)nn2)CC(F)(F)C1 [Example 208, 1-(3,3-difluoro-1-methylcyclobutyl)-N-((5-phenyl-1,3,4-thiadiazol-2-yl)methyl)-1H-1,2,3-triazole-4-carboxamide]
11 | 146 | O=C(NCc1nnc(-c2ccccc2)s1)c1cn([C@H]2CCC[C@@H]2O)nn1 [Example 209, 1-((1S,2S)-2-hydroxycyclopentyl)-N-((5-phenyl-1,3,4-thiadiazol-2-yl)methyl)-1H-1,2,3-triazole-4-carboxamide]
12 | 109 | O=C(NCc1nnc(-c2ccccc2)s1)c1cn([C@@H]2CCC[C@H]2O)nn1 [Example 210, 1-((1R,2R)-2-hydroxycyclopentyl)-N-((5-phenyl-1,3,4-thiadiazol-2-yl)methyl)-1H-1,2,3-triazole-4-carboxamide]
13 | 14 | CC(F)(F)Cn1cc(C(=O)NCc2nnc(-c3ccccc3)s2)nn1 [Example 211, 1-(2,2-difluoropropyl)-N-((5-phenyl-1,3,4-thiadiazol-2-yl)methyl)-1H-1,2,3-triazole-4-carboxamide]
14 | 882 | Cc1nc(C)c(-n2cc(C(=O)NCc3nnc(-c4ccccc4)s3)nn2)s1 [Example 212, 1-(2,4-dimethylthiazol-5-yl)-N-((5-phenyl-1,3,4-thiadiazol-2-yl)methyl)-1H-1,2,3-triazole-4-carboxamide]
15 | 3 | O=C(NCc1nnc(-c2ccccc2)s1)c1cn(CC(F)F)nn1 [Example 213]
16 | 251 | O=C(NCc1nnc(-c2ccccc2)s1)c1cc(C(F)(F)F)no1 [Example 214, N-[(5-phenyl-1,3,4-thiadiazol-2-yl)methyl]-3-(trifluoromethyl)-1,2-oxazole-5-carboxamide]
17 | 127 | O=C(NCc1nnc(-c2ccccc2)s1)c1noc2ccccc12 [Example 215, N-[(5-phenyl-1,3,4-thiadiazol-2-yl)methyl]-1,2-benzoxazole-3-carboxamide]

Row | EC50 [nM] | SMILES
18 | 326 | Cc1ccc(-n2cc(C(=O)NCc3ccc(-n4nccn4)cn3)nn2)c(C)n1 [Example 216, 1-(2,6-dimethylpyridin-3-yl)-N-{[5-(2H-1,2,3-triazol-2-yl)pyridin-2-yl]methyl}-1H-1,2,3-triazole-4-carboxamide]
19 | 648 | Cn1cc(C(=O)NCc2cc(-c3ccc(Cl)cc3)no2)nn1 [Example 217, N-{[3-(4-chlorophenyl)-1,2-oxazol-5-yl]methyl}-1-methyl-1H-1,2,3-triazole-4-carboxamide]
20 | 184 | Cn1cc(C(=O)NCc2cc(-c3ccccc3)no2)nn1 [Example 218, 1-methyl-N-[(3-phenyl-1,2-oxazol-5-yl)methyl]-1H-1,2,3-triazole-4-carboxamide]
21 | 154 | Cn1cc(C(=O)NCc2nnc(-c3ccc(F)cc3)s2)nn1 [Example 219, N-{[5-(4-fluorophenyl)-1,3,4-thiadiazol-2-yl]methyl}-1-methyl-1H-1,2,3-triazole-4-carboxamide]
22 | 195 | Cc1ccc(-n2cc(C(=O)NCc3cc(-c4ccccc4Cl)no3)nn2)c(C)n1 [Example 220, N-{[3-(2-chlorophenyl)-1,2-oxazol-5-yl]methyl}-1-(2,6-dimethylpyridin-3-yl)-1H-1,2,3-triazole-4-carboxamide]
23 | 722 | Cc1ccc(-n2cc(C(=O)NCc3cc(-c4cccc(Cl)c4)no3)nn2)c(C)n1 [Example 221, N-{[3-(3-chlorophenyl)-1,2-oxazol-5-yl]methyl}-1-(2,6-dimethylpyridin-3-yl)-1H-1,2,3-triazole-4-carboxamide]
24 | 172 | Cc1ccc(-n2cc(C(=O)NCc3cc(-c4ccccc4Cl)on3)nn2)c(C)n1 [Example 222, N-{[5-(2-chlorophenyl)-1,2-oxazol-3-yl]methyl}-1-(2,6-dimethylpyridin-3-yl)-1H-1,2,3-triazole-4-carboxamide]
25 | 58 | Cc1ccc(-n2cc(C(=O)NCc3cc(-c4cccc(F)c4)no3)nn2)c(C)n1 [Example 223, 1-(2,6-dimethylpyridin-3-yl)-N-{[3-(3-fluorophenyl)-1,2-oxazol-5-yl]methyl}-1H-1,2,3-triazole-4-carboxamide]
26 | 832 | Cn1cc(C(=O)NCc2cc(-c3ccccc3Cl)no2)nn1 [Example 224, N-{[3-(2-chlorophenyl)-1,2-oxazol-5-yl]methyl}-1-methyl-1H-1,2,3-triazole-4-carboxamide]
27 | 856 | Cn1cc(C(=O)NCc2cc(-c3ccccc3Cl)on2)nn1 [Example 225, N-{[5-(2-chlorophenyl)-1,2-oxazol-3-yl]methyl}-1-methyl-1H-1,2,3-triazole-4-carboxamide]
28 | 349 | Cn1cc(C(=O)NCc2cc(-c3cccc(F)c3)no2)nn1 [Example 226, N-{[3-(3-fluorophenyl)-1,2-oxazol-5-yl]methyl}-1-methyl-1H-1,2,3-triazole-4-carboxamide]
29 | 69 | Cc1ccc(-n2cc(C(=O)NCc3nnc(-c4ccc(F)cc4)s3)nn2)c(C)n1 [Example 227, 1-(2,6-dimethylpyridin-3-yl)-N-{[5-(4-fluorophenyl)-1,3,4-thiadiazol-2-yl]methyl}-1H-1,2,3-triazole-4-carboxamide]
30 | 51 | Cc1ccc(-c2cc(C(=O)NCc3nnc(-c4ccccc4)s3)no2)c(C)n1 [Example 228, 5-(2,6-dimethylpyridin-3-yl)-N-[(5-phenyl-1,3,4-thiadiazol-2-yl)methyl]-1,2-oxazole-3-carboxamide]
31 | 8 | COc1ccc(-n2cc(C(=O)NCc3nnc(-c4ccccc4)s3)nn2)c(C)n1 [Example 229, 1-(6-methoxy-2-methylpyridin-3-yl)-N-((5-phenyl-1,3,4-thiadiazol-2-yl)methyl)-1H-1,2,3-triazole-4-carboxamide]
32 | 6 | Cc1nc(O)ccc1-n1cc(C(=O)NCc2nnc(-c3ccccc3)s2)nn1 [Example 230, 1-(6-hydroxy-2-methylpyridin-3-yl)-N-((5-phenyl-1,3,4-thiadiazol-2-yl)methyl)-1H-1,2,3-triazole-4-carboxamide]
33 | 30 | O=C(NCc1cc(-c2ccccc2)no1)c1cn(CC(F)(F)F)nn1 [Example 231, N-((3-phenylisoxazol-5-yl)methyl)-1-(2,2,2-trifluoroethyl)-1H-1,2,3-triazole-4-carboxamide]
34 | 6 | O=C(NCc1cc(-c2ccccc2)on1)c1cn(CC(F)(F)F)nn1 [Example 232, N-((5-phenylisoxazol-3-yl)methyl)-1-(2,2,2-trifluoroethyl)-1H-1,2,3-triazole-4-carboxamide]
